Where a SMILES comes first, the peptide text is derived from it. [ ]: non-standard residue; d: D form. The star is where a group is joined. Sta = CC(C)C[C@H](N)[C@@H](O)CC(=O)O; Isovaleryl = CC(C)CC(=O)*

The target in the first experiment is T1, human plasma renin (Homo sapiens, UniProt P00797).
T1 construct: from tissue; host or cells: human plasma
T1 sequence (P00797 67-406): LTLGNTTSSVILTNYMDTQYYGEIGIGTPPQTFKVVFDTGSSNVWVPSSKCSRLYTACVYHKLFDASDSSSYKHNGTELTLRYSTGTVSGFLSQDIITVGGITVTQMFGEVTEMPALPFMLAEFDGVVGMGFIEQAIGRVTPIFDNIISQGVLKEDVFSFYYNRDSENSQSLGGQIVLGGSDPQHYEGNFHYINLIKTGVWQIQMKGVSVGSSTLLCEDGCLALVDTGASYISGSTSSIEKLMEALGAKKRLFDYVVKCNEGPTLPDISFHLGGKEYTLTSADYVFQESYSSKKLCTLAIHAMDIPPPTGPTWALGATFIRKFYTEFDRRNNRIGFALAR
Briefly: In vitro inhibition of human plasma renin (Boger et al., J. Med. Chem. 1985, 28, 1779). It is filed as biochemical. The note with it: human plasma renin assay. As to the method: In vitro inhibition of human plasma renin was measured as described by Boger, et al., J. Med. Chem. (1985) 28, 1779.
They were analyzed for purity by HPLC (30 minute gradient, 5% CH3 CN--H2 O to 95% CH3 CN--H2 O buffered with 0.1% H3 PO4; C18 reverse phase column), and were analyzed for composition by C, H, and N combustion analysis. IC50 values were measured in vitro using the human plasma renin assay, as described by Boger et al. J. Med. Chem. (1985) 28, 1779.
They were analyzed for purity by HPLC under conditions given above, and were analyzed for composition by C, H, and N combustion analysis. IC50 values were measured as described above.
In general, IC50 refers to the concentration needed to halve the response being measured. High values mean lower potency, low ones higher potency. On to “Boc-Phe-His-(ACHP)-1-(2-Benzyloxyethyl-2-Pyrrolidinone [Example 3E]”, for which the 50% inhibitory concentration (IC50) worked out at 0.024 µM.
Same read-out and setting: the figure for “Boc-Phe-His-(ACHP)-1-Cyclohexyl-2-Pyrrolidinone [Example 3B]” is 0.01 µM; for “Boc-Phe-His-(ACHP)-1-Methyl-2-Pyrrolidinone [Example 3A]” it is 0.0099 µM.
“Boc-Phe-His-(ACHP)-1-Methyl-5(R)-Vinyl-2-Pyrrolidinone [Example 3G]” yielded an IC50 of 0.0025 µM.
Compound “Boc-Phe-His-(ACHP)-1-Methyl-5(S)-Vinyl-2-Pyrrolidinone [Example 3F]” came in with an IC50 of 0.008 µM.
The same measure, in the same setting: the figure for “Boc-Phe-His-(ACHP)-5(R)-Ethyl-1-Methyl-2-Pyrrolidinone [Example 3K]” is 0.0085 µM; for “Boc-Phe-His-(ACHP)-5(S)-Acetoxymethyl)-1-Methyl-2-Pyrrolidinone [Example 3J]” it is 0.157 µM; for “Boc-Phe-His-(ACHP)-5(S)-Benzyloxymethyl-1-Methyl-2-Pyrrolidinone [Example 3C]” it is 4.4 µM.
On the same count and under the same terms, the figure for “Boc-Phe-His-(ACHP)-5(S)-Ethyl-1-Methyl-2-Pyrrolidinone [Example 3L]” is 0.0053 µM; for “Boc-Phe-His-(ACHP)-5(S)-Hydroxymethyl)-1-Methyl-2-Pyrrolidinone [Example 3I]” it is 0.014 µM; for “Boc-Phe-His-(ACHP)-5(S)-Methoxymethyl-1-Methyl-2-Pyrrolidinone [Example 3D]” it is 0.071 µM.

A further experiment concerns hog renin.
Assay: not given
The note with it: after the injection of hog renin into nephrectomized rats; Gross et al., Science 1972; cited from earlier work.
On to `CC(C)CC(=O)N[C@H](C(=O)N[C@H](C(=O)N[C@@H](CC(C)C)[C@@H](O)CC(=O)N[C@@H](C)C(=O)N[C@@H](CC(C)C)[C@@H](O)CC(=O)O)C(C)C)C(C)C` [pepstatin] (Isovaleryl-VV[Sta]A[Sta]-OH), for which the “blood pressure in vivo” value is given as “reduces blood pressure in vivo”.
